Test results from patent US20100184727A1, “TREATMENT OF EXCESS SEBUM PRODUCTION” (SUMMIT (CAMBRIDGE) LIMITED, priority 2006, published 2010).
Values after ≈ are worked out from the molar mass of the structure shown. Where a name gives a salt, the structure may show the parent alone. Read-outs that look alike come from different tables or passages of the source.

Experiments:
[1] = tested on: Propionibacterium acnes NCTC 737; experiment: MIC/MBC 96-well plate broth micro-dilution assay; type: cell-based; conditions: for MBC / MIC: Cutibacterium acnes
Experimental: The anaerobic cutaneous propionibacteria e.g. Propionibacterium acnes are implicated in the pathogenesis of acne vulgaris. The test organism Propionibacterium acnes is classified as a ‘Type’ strain for the species. […] MIC determinations were carried out using a standard 96-well plate broth micro-dilution assay. Wilkins-Chalgren anaerobe broth at pH 6 and pH 7.1±0.2 was used for P. acnes. […] The test range for the control compounds varied depending on known activity levels. […] Benzoyl peroxide and erythromycin were used as control compounds in P. acnes assays. Benzoyl peroxide and erythromycin were both dissolved in ethanol.

[2] = tested on: sebum production; experiment: Sebum production study in healthy male volunteers (Sebumeter); type: in vivo; conditions: for Sebum Production Maximum % Reduction LS Means: compared to placebo, healthy male volunteers
Experimental: The study examined the effects of oxybutynin on sebum production in 9 healthy male volunteers. This was double-blind, randomised, placebo-controlled dose study
The subjects were assessed on each dosing occasion for sebum production pre-dose and 1 h, 2.5 h, 4 h and 6 h post-dose. Skin sebum excretion rates were determined using a Sebumeter® (Optical measurement of sebum excretion using opalescent film imprint, 2006, Handbook of non-invasive methods and the skin, Second Edition). Vital signs were recorded at specified times during each study period and adverse events were reported throughout.
For each subject, the maximum % reduction in sebum production compared to placebo was calculated for each dose level. Using this information, a mixed effects regression analysis of the % reduction in sebum versus dose with subject as a random effect was performed.

[3] = NCTC737, pH 6, Wilkins-Chalgren agar, mean of minimum 4 replicates, read-out: MBC
[4] = NCTC737, pH 6, Wilkins-Chalgren anaerobe broth, mean of minimum 4 replicates, read-out: MIC
[5] = NCTC737, pH 7.1 ± 0.2, Wilkins-Chalgren agar, mean of minimum 4 replicates, read-out: MBC
[6] = NCTC737, pH 7.1 ± 0.2, Wilkins-Chalgren anaerobe broth, mean of minimum 4 replicates, read-out: MIC

Structure (SMILES)	MBC [1, 3] [µg/mL]	MIC [1, 4] [µg/mL]	MBC [1, 5] [µg/mL]	MIC [1, 6] [µg/mL]	Antimicrobial activity against P. acnes (in words) ([1]; pH 6)	Antimicrobial activity against P. acnes (in words) ([1]; pH 7.1±0.2)	other results
CCN(CC)CC#CCOC(=O)C(O)(c1ccccc1)C1CCCCC1 (stereo not shown) [Oxybutynin chloride, oxybutynin chloride]	1000	500	500	500	some moderate antimicrobial activity	some moderate antimicrobial activity	
O=C(OOC(=O)c1ccccc1)c1ccccc1 [Benzoyl peroxide]							MBC ([1]; NCTC737, pH 6): 62.5 µg/mL (≈ 258 µM); MIC ([1]; NCTC737, pH 6): 31.2 µg/mL (≈ 129 µM); MBC ([1]; NCTC737, pH 7.1): 62.5 µg/mL (≈ 258 µM); MIC ([1]; NCTC737, pH 7.1): 31.2 µg/mL (≈ 129 µM)
CC[C@H]1OC(=O)[C@H](C)[C@@H](O[C@H]2C[C@@](C)(OC)[C@@H](O)[C@H](C)O2)[C@H](C)[C@@H](O[C@@H]2O[C@H](C)C[C@H](N(C)C)[C@H]2O)[C@](C)(O)C[C@@H](C)C(=O)[C@H](C)[C@@H](O)[C@]1(C)O [Erythromycin]	> 2.5	0.63 (≈ 0.858 µM)	> 2.5	0.313 (≈ 0.426 µM)			
NC(=O)C(c1ccccc1)(c1ccccc1)[C@@H]1CCN(CCc2ccc3c(c2)CCO3)C1 [Darifenacin hydrobromide, darifenacin hydrobromide]	1000	500	500	500	some moderate antimicrobial activity	some moderate antimicrobial activity	
CCN(CC)CC#CCOC(=O)C(O)(c1ccccc1)C1CCCCC1 (stereo not shown) [oxybutynin]							Sebum Production Maximum % Reduction LS Means ([2]; dose 1 mg): 21.59%; Sebum Production Maximum % Reduction LS Means ([2]; dose 2 mg): −16.94%; Sebum Production Maximum % Reduction LS Means ([2]; dose 5 mg): −34.74%; Sebum Production Maximum % Reduction LS Means ([2]; dose 10 mg): −75.52%; Effect on sebum production (in words) ([2]; following administration of 2 mg, 5 mg and 10 mg): decreased with dose
